Format in all cases: cell-based
One test deals with Renilla. Nature of the test: Renilla signal in NR2F6 agonist screening, cmpd/DMSO. The settings on record: Table 15; for fold induction at 2 µM / fold induction at 10 µM / fold induction at 40 µM: Renilla, read-out: Renilla F4, cmpd/DMSO (mean).
Another test addresses T1, NR2F6 (Homo sapiens, UniProt P10588).
T1 construct: expressed in transfected cells; also transient transfection
T1 sequence (P10588 1-404): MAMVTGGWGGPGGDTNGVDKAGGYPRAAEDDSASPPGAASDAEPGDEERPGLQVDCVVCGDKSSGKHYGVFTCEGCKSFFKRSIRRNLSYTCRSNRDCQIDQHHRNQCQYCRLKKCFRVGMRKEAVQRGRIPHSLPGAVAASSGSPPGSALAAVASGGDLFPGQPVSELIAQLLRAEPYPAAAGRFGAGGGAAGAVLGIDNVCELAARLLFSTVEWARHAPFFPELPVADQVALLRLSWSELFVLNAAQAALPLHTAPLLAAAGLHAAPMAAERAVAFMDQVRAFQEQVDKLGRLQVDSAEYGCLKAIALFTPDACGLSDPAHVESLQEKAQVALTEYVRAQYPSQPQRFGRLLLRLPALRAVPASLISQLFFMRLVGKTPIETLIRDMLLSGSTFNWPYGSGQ
Nature of the test: NR2F6 agonist screening, Firefly signal cmpd/DMSO. The settings on record: Table 15.

The target in test [1] is T2, ERα (Homo sapiens, UniProt P03372).
T2 construct: expressed in transfected cells
T2 sequence (P03372 1-595): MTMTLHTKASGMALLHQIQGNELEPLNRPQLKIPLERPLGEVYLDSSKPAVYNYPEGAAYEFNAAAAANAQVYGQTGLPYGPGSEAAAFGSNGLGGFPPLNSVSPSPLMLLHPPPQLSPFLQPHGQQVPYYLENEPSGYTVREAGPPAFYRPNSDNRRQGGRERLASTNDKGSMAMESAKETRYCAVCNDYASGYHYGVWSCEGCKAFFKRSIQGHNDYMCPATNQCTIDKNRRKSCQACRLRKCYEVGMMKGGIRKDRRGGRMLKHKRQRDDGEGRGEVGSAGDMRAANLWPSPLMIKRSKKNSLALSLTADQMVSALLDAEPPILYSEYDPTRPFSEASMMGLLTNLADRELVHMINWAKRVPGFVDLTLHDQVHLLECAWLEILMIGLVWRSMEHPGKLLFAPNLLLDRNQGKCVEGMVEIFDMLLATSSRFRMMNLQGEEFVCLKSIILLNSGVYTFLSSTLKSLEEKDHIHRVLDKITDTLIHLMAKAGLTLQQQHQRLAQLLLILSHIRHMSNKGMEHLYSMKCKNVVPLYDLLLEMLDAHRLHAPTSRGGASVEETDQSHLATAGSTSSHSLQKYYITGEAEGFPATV
The experiment in a line: Counterscreening, Firefly signal with ERα transient transfection (Firefly_ERa). The settings on record: Table 15.

The target in test [2] is T2, ERα. Described as above. The settings on record: Table 15; 10 uM. As for the experimental part: The methodology for screening candidate compounds as NR2F6 agonists was as follows: For primary screening, hit criteria was ACT %>DMSO control+5*SD (DSO control) at 10 μM, or any compound with S/B>2. For rescreening, hit criteria was ACT %>DMSO control+3*SD (DSO control) in each replicate at 10 μM. For counterscreening, hit criteria was mean ACT<DMSO control+3*SD (DMSO control) with ERα transient transfection in duplicate at 10 μM.

Another test deals with Renilla_ERa. Nature of the test: Renilla signal in ERα counterscreen (Renilla_ERa). As to conditions: Table 15; for fold induction at 2 µM / fold induction at 10 µM / fold induction at 40 µM: read-out: Renilla ERalpha transient, cmpd/DMSO (mean).

For `Cc1ccc(NC(=O)c2noc3c2CC(C)(C)CC3)cc1C` [Compound Z1], the fold induction at 2 µM amounted to 1.3 with Renilla (2 uM) and 1.1 in the test with Renilla_ERa (2 uM). The fold induction at 10 µM worked out at 1.6 with Renilla (10 uM) and 1 in the test with Renilla_ERa (10 uM). The fold induction at 40 µM in the test with Renilla (40 uM) amounted to 0.8; in the test on Renilla_ERa (40 uM), 0.7. For the same compound, the “Firefly F4, cmpd/DMSO (mean)” value at NR2F6 (2 uM) is recorded as 1.9; on NR2F6 (10 uM), 1.8; on NR2F6 (40 uM) it was 0.8. The “Firefly ERalpha transient, cmpd/DMSO (mean)” value came out at 2.4 on ERα [1] (2 uM), 0.9 at ERα [1] (40 uM) and 2.2 at ERα [2].
As for `Cc1ccc(NC(=O)c2n[nH]c3c2CCCCC3)cc1C` [Compound Z2], the fold induction at 2 µM in the test with Renilla (2 uM) and with Renilla_ERa (2 uM) was 1.2 in each case. Further, the fold induction at 10 µM in the test on Renilla (10 uM) is 1.8; with Renilla_ERa (10 uM), 1.1. Also, the fold induction at 40 µM came out at 1.2 in the test with Renilla (40 uM) and 1 with Renilla_ERa (40 uM). Further, the “Firefly F4, cmpd/DMSO (mean)” value is given as 1.4 on NR2F6 (2 uM), 1.9 at NR2F6 (10 uM) and 0.6 at NR2F6 (40 uM). In addition, the entries for the “Firefly ERalpha transient, cmpd/DMSO (mean)” value at ERα [1] (2 uM), at ERα [1] (40 uM) and at ERα [2] were 1.6, 0.7 and 1.1, respectively.
`COc1cccc(-c2noc(Cn3nccc(Cl)c3=O)n2)c1` [Compound Z3]: the fold induction at 2 µM in the test on Renilla (2 uM) turned out to be 1.5; in the test with Renilla_ERa (2 uM), 1.1. The fold induction at 10 µM in the test with Renilla (10 uM) was 1.4; in the test with Renilla_ERa (10 uM) it was 1. Also, the fold induction at 40 µM in the test with Renilla (40 uM) and in the test on Renilla_ERa (40 uM) was 0.9 in each case. The “Firefly F4, cmpd/DMSO (mean)” value amounted to 1.5 on NR2F6 (2 uM), 1.1 on NR2F6 (10 uM) and 1.6 on NR2F6 (40 uM). Also, the results for the “Firefly ERalpha transient, cmpd/DMSO (mean)” value at ERα [1] (2 uM), at ERα [1] (40 uM) and on ERα [2] were 2.2, 1.7 and 2.6, respectively.
With `COc1cccc(-c2noc(Cn3ncc(Cl)cc3=O)n2)c1` [Compound Z4], the fold induction at 2 µM with Renilla (2 uM) was 1.1; in the test on Renilla_ERa (2 uM), 1.2. Further, the fold induction at 10 µM in the test on Renilla (10 uM) was 1.6; with Renilla_ERa (10 uM) it was 1.1. Besides, the fold induction at 40 µM amounted to 1.4 in the test on Renilla (40 uM) and 0.8 with Renilla_ERa (40 uM). The figures for the “Firefly F4, cmpd/DMSO (mean)” value on NR2F6 (2 uM), at NR2F6 (10 uM) and at NR2F6 (40 uM) were 1.5, 1.2 and 0.8, respectively. Further, the results for the “Firefly ERalpha transient, cmpd/DMSO (mean)” value at ERα [1] (2 uM), at ERα [1] (40 uM) and at ERα [2] were 1.5, 0.8 and 1.4, respectively.
`COc1cccc(-c2noc(Cn3ncccc3=O)n2)c1` [Compound Z5]: the fold induction at 2 µM with Renilla (2 uM) and with Renilla_ERa (2 uM) was 1 in each case. Besides, the fold induction at 10 µM with Renilla (10 uM) was 0.9; in the test on Renilla_ERa (10 uM), 1. Moreover, the figures for the fold induction at 40 µM in the test on Renilla (40 uM) and with Renilla_ERa (40 uM) were 1.2 and 1, respectively. Also, the “Firefly F4, cmpd/DMSO (mean)” value at NR2F6 (2 uM) amounted to 1.5; on NR2F6 (10 uM), 0.9; on NR2F6 (40 uM), 1.2. In addition, the figures for the “Firefly ERalpha transient, cmpd/DMSO (mean)” value at ERα [1] (2 uM), at ERα [1] (40 uM) and on ERα [2] were 2.4, 2.4 and 2.5, respectively.
On to `COc1cccc(-c2noc(Cn3ncc4ccccc4c3=O)n2)c1` [Compound Z6], for which the entries for the “Renilla F4, cmpd/DMSO (mean)” value in the test on Renilla (2 uM), with Renilla (10 uM) and with Renilla (40 uM) were 1.1, 1.1 and 0.9, respectively. Besides, the “Firefly F4, cmpd/DMSO (mean)” value on NR2F6 (2 uM) is 1.4; at NR2F6 (10 uM), 1.4; at NR2F6 (40 uM), 1.1. In addition, the “Firefly ERalpha transient, cmpd/DMSO (mean)” value at ERα [1] (2 uM) is 2.0; on ERα [1] (40 uM), 1.1; at ERα [2], 2.2. Also, the “Renilla ERalpha transient, cmpd/DMSO (mean)” value is reported as 1.1 in the test with Renilla_ERa (2 uM), 1.1 with Renilla_ERa (10 uM) and 0.9 in the test on Renilla_ERa (40 uM).
For the compound `COc1ccc(-c2noc(Cn3ncc4ccccc4c3=O)n2)cc1` [Compound Z7], the fold induction at 2 µM in the test on Renilla (2 uM) was determined as 1.3; with Renilla_ERa (2 uM), 1.1. For the same compound, the fold induction at 10 µM with Renilla (10 uM) and in the test on Renilla_ERa (10 uM) was 1.1 throughout. For the same compound, the values for the fold induction at 40 µM in the test with Renilla (40 uM) and with Renilla_ERa (40 uM) were 1.1 and 1, respectively. In addition, the entries for the “Firefly F4, cmpd/DMSO (mean)” value at NR2F6 (2 uM), on NR2F6 (10 uM) and at NR2F6 (40 uM) were 0.9, 1.2 and 1.0, respectively. For the same compound, the “Firefly ERalpha transient, cmpd/DMSO (mean)” value at ERα [1] (2 uM) was found to be 1.3; on ERα [1] (40 uM), 1.5; at ERα [2], 2.0.
With `CS(=O)(=O)Nc1ccc([N+](=O)[O-])c2nonc12` [Compound Z13], the entries for the “Renilla F4, cmpd/DMSO (mean)” value in the test on Renilla (2 uM), in the test with Renilla (10 uM) and with Renilla (40 uM) were 0.8, 0.7 and 0.4, respectively. In addition, the “Firefly F4, cmpd/DMSO (mean)” value on NR2F6 (2 uM) is 1.0; on NR2F6 (10 uM) it was 0.9; on NR2F6 (40 uM), 1.6. The “Firefly ERalpha transient, cmpd/DMSO (mean)” value at ERα [1] (2 uM) came out at 1.2; at ERα [1] (40 uM) it was 1.1; on ERα [2], 1.7. For the same compound, the “Renilla ERalpha transient, cmpd/DMSO (mean)” value amounted to 0.8 with Renilla_ERa (2 uM), 0.6 in the test on Renilla_ERa (10 uM) and 0.4 in the test on Renilla_ERa (40 uM).
For the compound `CC(=O)Nc1ccc(Br)c2nonc12` [Compound Z14], the fold induction at 2 µM in the test with Renilla (2 uM) is 0.8; in the test on Renilla_ERa (2 uM) it was 1.1. The fold induction at 10 µM in the test on Renilla (10 uM) is 0.9; in the test with Renilla_ERa (10 uM) it was 1.1. Besides, the fold induction at 40 µM in the test with Renilla (40 uM) and with Renilla_ERa (40 uM) was 1 in each case. Further, the “Firefly F4, cmpd/DMSO (mean)” value at NR2F6 (2 uM) is reported as 1.2; on NR2F6 (10 uM) it was 0.8; on NR2F6 (40 uM), 1.2. In addition, the “Firefly ERalpha transient, cmpd/DMSO (mean)” value at ERα [1] (2 uM) is listed as 1.0; on ERα [1] (40 uM), 1.0; at ERα [2], 1.2.
Take `CC(=O)Nc1ccc(NS(C)(=O)=O)c2nonc12` [Compound Z15]: the fold induction at 2 µM in the test on Renilla (2 uM) was found to be 0.8; in the test with Renilla_ERa (2 uM), 1. The fold induction at 10 µM with Renilla (10 uM) turned out to be 1.1; with Renilla_ERa (10 uM) it was 1. In addition, the fold induction at 40 µM stood at 1 in the test with Renilla (40 uM) and 0.9 in the test with Renilla_ERa (40 uM). Also, the results for the “Firefly F4, cmpd/DMSO (mean)” value on NR2F6 (2 uM), on NR2F6 (10 uM) and at NR2F6 (40 uM) were 1.0, 0.5 and 0.9, respectively. Also, the “Firefly ERalpha transient, cmpd/DMSO (mean)” value on ERα [1] (2 uM) was 0.9; at ERα [1] (40 uM), 1.1; on ERα [2] it was 1.1.

The values above are taken from patent publication US11377442B2, “Small molecule agonists and antagonists of NR2F6 activity” (ZANDER THERAPEUTICS, INC., priority 2016, dated 2022).
